Measurements published in BigSolDB 2.1.

COc1ccc([C@@H]2CC(=O)c3c(O)cc(O[C@@H]4O[C@H](CO[C@@H]5O[C@@H](C)[C@H](O)[C@@H](O)[C@H]5O)[C@@H](O)[C@H](O)[C@H]4O)cc3O2)cc1O
Settings | solubility (mole fraction)
in PEG-400, 298.15 K | 0.00633
in PEG-400, 303.15 K | 0.00749
in PEG-400, 313.15 K | 0.00985
in PEG-400, 323.15 K | 0.0124
in PEG-400, 333.15 K | 0.0152

solubility (mole fraction)
Settings | in ethanol | in isopropanol | in n-butanol | in propylene glycol | in water
298.15 K | 3.45e-05 | 1.53e-05 | 0.000315 | 0.000535 | 1.47e-07
303.15 K | 3.95e-05 | 1.87e-05 | 0.000359 | 0.000647 | 1.52e-07
313.15 K | 5.27e-05 | 2.61e-05 | 0.000461 | 0.000886 | 1.61e-07
323.15 K | 6.56e-05 | 3.82e-05 | 0.000582 | 0.00114 | 1.7e-07
333.15 K | 8.45e-05 | 5.86e-05 | 0.000715 | 0.00158 | 1.8e-07
